{"source": "patent US20140031217A1", "about": "“HERBICIDAL COMPOSITIONS COMPRISING 4-AMINO-3-CHLORO-5-FLUORO-6-(4-CHLORO-2-FLUORO-3-METHOXYPHENYL)PYRIDINE-2-CARBOXYLIC ACID OR A DERIVATIVE THEREOF AND AUXIN TRANSPORT INHIBITORS” (DOW AGROSCIENCES LLC, priority 2012, published 2014)", "key": {"CYPRO": {"test_system": "CYPRO", "experiment": "In-water applied (paddy) greenhouse weed control, CYPRO", "format": "in vivo, Cyperus rotundus L.", "details": "19 DAA", "procedure": "Weed seeds or nutlets of the desired test plant species were planted in puddled soil (mud) prepared by mixing a shredded, non-sterilized mineral soil (50.5 percent silt, 25.5 percent clay, and 24 percent sand, with a pH of about 7.6 and an organic matter content of about 2.9 percent) and water at a 1:1 volumetric ratio. The prepared mud was dispensed in 365 mL aliquots into 16-ounce (oz.) non-perforated plastic pots with a surface area of 86.59 square centimeters (cm^2) leaving a headspace of 3 centimeters (cm) in each pot. Mud was allowed to dry overnight prior to planting or transplanting. Rice seeds were planted in Sun Gro MetroMix® 306 planting mixture, which typically has a pH of 6.0 to 6.8 and an organic matter content of about 30 percent, in plastic plug trays. Seedlings at the second or third leaf stage of growth were transplanted into 840 mL of mud contained in 32-oz. non-perforated plastic pots with a surface area of 86.59 cm^2 4 days prior to herbicide application. The paddy was created by filling the headspace of the pots with 2.5 to 3 cm of water. When required to ensure good germination and healthy plants, a fungicide treatment and/or other chemical or physical treatment was applied. The plants were grown for 4-22 days in a greenhouse with an approximate 14 h photoperiod which was maintained at about 29′C during the day and 26° C. during the night. Nutrients were added as Osmocote® (19:6:12, N:P:K+minor nutrients) at 2 g per 16-oz. pot and 4 g per 960-mL 32-oz. pot. Water was added on a regular basis to maintain the paddy flood, and supplemental lighting was provided with overhead metal halide 1000-Watt lamps as necessary. The plants were employed for testing when they reached the second or third true leaf stage.\nTreatments consisted of the acid or esters of 4-amino-3-chloro-5-fluoro-6-(4-chloro-2-fluoro-3-methoxy-phenyl)pyridine-2-carboxylic acid (compound A) each formulated as an SC and various herbicidal components alone and in combination. Forms of compound A were applied on an acid equivalent basis.\n(§1) Other herbicidal components were applied on an active ingredient basis and included auxin transport inhibiting (ATI) herbicides chlorflurenol-methyl (technical material), chlorflurenol (technical material), diflufenzopyr (technical material), dilfufenzopyr sodium (technical material), flurenol-methyl (technical material,) and naptalam (technical material).\nTreatment requirements for each compound or herbicidal component were calculated based upon the rates being tested, the concentration of active ingredient or acid equivalent in the formulation, an application volume of 2 mL per component per pot, and an application area of 86.59 cm^2 per pot.\nFor formulated compounds, a measured amount was placed in an individual 100 or 200 mL glass vial and was dissolved in a volume of 1.25% (v/v) Agri-Dex® crop oil concentrate to obtain application solutions.\nFor technical grade compounds, a weighed amount was placed in an individual 100 to 200 mL glass vial and was dissolved in a volume of acetone to obtain concentrated stock solutions. […] The concentrated stock solutions obtained were diluted with an equivalent volume of an aqueous mixture containing 2.5% (v/v) crop oil concentrate so that the final application solutions contained 1.25% (v/v) crop oil concentrate.\nApplications were made by injecting with a pipetter appropriate amounts of the application solutions, individually and sequentially, into the aqueous layer of the paddy. Control plants were treated in the same manner with the solvent blank. Applications were made so that all treated plant material received the same concentrations of acetone and crop oil concentrate.\nThe treated plants and control plants were placed in a greenhouse as described above and water was added as needed to maintain a paddy flood. […]"}, "DIGSA": {"test_system": "DIGSA", "experiment": "Postemergence foliar-applied greenhouse weed control, DIGSA", "format": "in vivo, Digitaria sanguinalis (L.) Scop.", "description": "Seeds or nutlets of the desired test plant species were planted in a soil matrix prepared by mixing a loam or sandy loam soil (e.g., 28.6 percent silt, 18.8 percent clay, and 52.6 percent sand, with a pH of about 5.8 and an organic matter content of about 1.8 percent) and calcareous grit in an 80 to 20 ratio. The soil matrix was contained in plastic pots with a volume of 1 quart and a surface area of 83.6 square centimeters (cm^2). When required to ensure good germination and healthy plants, a fungicide treatment and/or other chemical or physical treatment was applied. The plants were grown for 8-22 days in a greenhouse with an approximate 14 h photoperiod which was maintained at about 29° C. during the day and 26° C. during the night. Nutrients (Peters Excel® 15-5-15 5-Ca 2-Mg and iron chelate) were applied in the irrigation solution as needed and water was added on a regular basis. Supplemental lighting was provided with overhead metal halide 1000-Watt lamps as necessary. The plants were employed for testing when they reached the first through fourth true leaf stage.\nTreatments consisted of the acid or esters of 4-amino-3-chloro-5-fluoro-6-(4-chloro-2-fluoro-3-methoxy-phenyl) pyridine-2-carboxylic acid (Compound A), each formulated as an SC (suspension concentrate), and various herbicidal components alone and in combination. Forms of compound A were applied on an acid equivalent basis.\nas §1, with “chlorflurenol” for “chlorflurenol-methyl”, “chlorflurenol-methyl” for “chlorflurenol”, “diflufenzopyr” for “dilfufenzopyr”, “material)” for “material,)”\nTreatment requirements were calculated based upon the rates being tested, the concentration of active ingredient or acid equivalent in the formulation, and a 12 mL application volume at a rate of 187 L/ha.\nFor treatments comprised of formulated and technical compounds, weighed amounts of the technical materials were placed individually in 25 mL glass vials and dissolved in a volume of 97:3 v/v acetone/DMSO to obtain 12× stock solutions, and measured amounts of the formulated compounds were placed individually in 25 mL glass vials and diluted in a volume of 1.5% (v/v) crop oil concentrate or water to obtain 12× stock solutions. […] Application solutions were prepared by adding an appropriate amount of each stock solution (e.g., 1 mL) and diluted to the appropriate final concentrations with the addition of an appropriate amount of an aqueous mixture of 1.5% (v/v) crop oil concentrate so that the final spray solutions contained 1.25% (v/v) crop oil concentrate. When required, additional water and/or 97:3 v/v acetone/DMSO was added to individual application solutions so that the final acetone and DMSO concentrations of the application solutions being compared were 8.1% and 0.25%, respectively.\nAll stock solutions and applications solutions were visually inspected for compound compatibility prior to application. Spray solutions were applied to the plant material with an overhead Mandel track sprayer equipped with an 8002E nozzle calibrated to deliver 187 L/ha over an application area of 0.503 m^2 at a spray height of 18 to 20 inches (46 to 50 cm) above average plant canopy height. Control plants were sprayed in the same manner with the solvent blank.\nThe treated plants and control plants were placed in a greenhouse as described above and watered by sub-irrigation to prevent wash-off of the test compounds. After approximately 3 weeks, the condition of the test plants as compared with that of the untreated plants was determined visually and scored on a scale of 0 to 100 percent where 0 corresponds to no injury or growth inhibition and 100 corresponds to complete kill. […]"}}}
{"compound": "COc1c(Cl)ccc(-c2nc(C(=O)OCc3ccccc3)c(Cl)c(N)c2F)c1F", "note": "[Compound A Benzyl Ester]", "values": [{"measurement": "Visual Weed Control (%) Obs", "setting": "CYPRO; 8 gae/ha", "value": 50, "unit": "%"}, {"measurement": "Visual Weed Control (%) Obs", "setting": "CYPRO; 16 gae/ha", "value": 85, "unit": "%"}, {"measurement": "Visual Weed Control (%) Obs", "setting": "CYPRO; 32 gae/ha", "value": 90, "unit": "%"}, {"measurement": "Visual Weed Control (%) Obs", "setting": "DIGSA; 20 DAA, 4.38 gae/ha", "value": 40, "unit": "%"}, {"measurement": "Visual Weed Control (%) Obs", "setting": "DIGSA; 20 DAA, 8.75 gae/ha", "value": 40, "unit": "%"}, {"measurement": "Visual Weed Control (%) Obs", "setting": "DIGSA; 21 DAA, 17.5 gae/ha", "value": 30, "unit": "%"}]}
